# Like-named read-outs stand apart in the source and are kept apart here.
# What was measured:
# [1] = target: T1, human PBGS (Homo sapiens, UniProt P13716); experiment: native PAGE gel shift of human PBGS; assay type: biochemical, H. sapiens
# T1 sequence (P13716 1-330): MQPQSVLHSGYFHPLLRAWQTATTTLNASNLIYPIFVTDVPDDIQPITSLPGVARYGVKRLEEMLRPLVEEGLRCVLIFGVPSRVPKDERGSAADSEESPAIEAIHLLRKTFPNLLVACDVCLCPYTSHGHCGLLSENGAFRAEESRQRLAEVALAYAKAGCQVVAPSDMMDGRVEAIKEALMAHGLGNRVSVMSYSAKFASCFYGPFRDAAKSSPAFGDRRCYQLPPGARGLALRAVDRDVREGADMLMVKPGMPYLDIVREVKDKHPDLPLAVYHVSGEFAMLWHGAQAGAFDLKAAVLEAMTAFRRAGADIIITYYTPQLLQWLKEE
# Procedure: (§1) FIG. 33 illustrates the species-specific effects of morphlock-1 on PBGS—FIG. 33(a) Dose-response curves showing morphlock-1 inhibition of pea PBGS at 1 μg/ml (∘) and human PBGS at 0.6 μg/ml (Δ) and 10 μg/ml (□). The proteins were incubated in the presence of 10× inhibitor for 30 minutes at 37° C. prior to assay. The concentrations on the X-axis represent the final concentration of morphlock-1 in the assay. FIG. 33(b). The IC50 for morphlock-1 is a function of pea PBGS concentration. IC50 values were determined as per part (a) using the noted concentrations of pea PBGS. (c) Native PAGE evaluation of the effect of morphlock-1 on the quaternary structure equilibria of PBGS (˜1 mg/ml) from D. melanogaster, P. aeruginosa, V. cholerae, and H. sapiens. Note that the charge/mass ratio is not the same for PBGS from different species.
# (§2) The putative morphlock-1 binding site is phylogenetically variable (see below). As such, morphlock-1 would not be expected to inhibit human PBGS. The effect of morphlock-1 on the activity of human PBGS was also determined at the midpoint of the protein concentration-dependent specific activity. […] To further establish the species-selectivity of morphlock-1, the gel shift assay was also carried out for PBGS from P. aeruginosa, and V. cholerae.
# [2] = test system: V. cholerae PBGS; experiment: native PAGE gel shift of V. cholerae PBGS; assay type: biochemical; details: V. cholerae PBGS ~1 mg/ml
# Procedure: as §1, §2
# [3] = target: T2, pea PBGS (Pisum sativum, UniProt P30124, C394A); experiment: native PAGE gel shift of pea PBGS octamer/hexamer equilibrium; assay type: biochemical
# T2 construct: made in house
# Procedure: FIG. 32(a) The inhibitor morphlock-1 is illustrated as posed by Glide. The subunits A, B, and E are illustrated as ribbon diagram. Morphlock-1 is shown with carbon atoms and illustrated as ball and stick. FIG. 32(b) The chemical structure of morphlock-1. […] Pea PBGS was incubated with various concentrations of morphlock-1 (in a DMSO solution). Each concentration of morphlock-1 with a fixed amount of DMSO was incubated with protein for 30 minutes at 37° C. prior to resolution on 12.5% polyacrylamide native PhastGels. […] (d) The protein concentration dependence of pea PBGS specific activity is illustrated. PBGS (at varied concentrations) was incubated in the presence of DMSO (●) or 50 μM morphlock-1 in DMSO (∘) for 30 minutes at 37° C. prior to assay. The final concentration of morphlock-1 in the inhibited assay was 5 μM, and the concentration of PBGS in the inhibited and control assays ranged from 0.05-50 μg/mL (0.014-1.4 μM).
# FIG. 34(b) Hexameric pea PBGS (1 mg/mL, prepared by dialysis against low ionic strength) was incubated with DMSO (left) or 500 μM morphlock-1 (right) for 30 minutes at 37° C. ALA was added at the indicated concentrations, and the incubation was continued for 30 minutes prior to resolution on 12.5% polyacrylamide native PhastGels. […] Morphlock-1 concentrations are listed at the top of each lane. Protein samples for left-most gel were at 50 μg/ml (1.4 μM subunit) and 1 mM ALA; protein detection is by silver staining. Samples for the middle gel were also at 50 μg/ml (1.4 μM subunit) and 1 mM ALA; the gel was activity stained. Samples for the right-most gel were at 5 μg/ml (0.14 μM subunit) and 10 mM magnesium; protein detection is by Krypton Infrared staining.
# FIG. 41 illustrates native PAGE screening of compounds. Octameric PBGS (1 mg/mL) was incubated with DMSO or 2 mM of each compound for 30 minutes at 37° C. prior to resolution on 12.5% polyacrylamide native PhastGels. […] Each compound is identified by its box address. The compound B6 is morphlock-1.
# The interconversion of pea PBGS hexamer and octamer is a dynamic equilibrium that responds to protein concentration, substrate concentration, magnesium concentration, inhibitor concentration, and ionic strength.
# T2 sequence (P30124 69-398 C394A): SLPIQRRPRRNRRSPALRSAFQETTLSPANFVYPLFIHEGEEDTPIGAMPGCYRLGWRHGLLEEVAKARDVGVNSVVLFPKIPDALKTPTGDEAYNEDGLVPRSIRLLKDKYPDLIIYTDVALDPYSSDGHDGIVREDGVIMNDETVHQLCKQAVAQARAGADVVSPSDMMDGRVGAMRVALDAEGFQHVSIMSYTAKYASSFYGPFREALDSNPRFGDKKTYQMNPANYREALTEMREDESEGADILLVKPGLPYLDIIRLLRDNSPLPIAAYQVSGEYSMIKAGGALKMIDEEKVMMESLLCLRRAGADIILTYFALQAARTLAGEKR
smiles,measurement,setting,value
"O=C1Nc2ccc(S(=O)(=O)NCC(O)c3ccc([N+](=O)[O-])cc3)c3cccc1c23 (stereo not drawn) [morphlock-1, 2-oxo-1,2-dihydro-benzo(cd)indole-6-sulfonic acid[2-hydroxy-2-(4-nitro-phenyl)-ethyl]-amide]",effect on mobility of human PBGS on native PAGE gel,[1],nor does it effect the mobility of human PBGS
same,"perturbation of the quaternary structure equilibrium, gel shift assay",[2],did not cause any perturbation of the quaternary structure equilibrium
same,IC50,"[3]; 5 μg/ml pea PBGS and 10 mM magnesium, Krypton IR detection, read-out: apparent IC50, native PAGE",1 to 3 µM
same,IC50,"[3]; 50 μg/ml (1.4 μM subunit) pea PBGS and 1 mM ALA, silver stain, read-out: apparent IC50, native PAGE",~100 µM
same,native PAGE screening: shift of oligomeric equilibrium,"[3]; PBGS 1 mg/mL, 2 mM compound, 30 minutes at 37° C.",dramatically shift the oligomeric equilibrium to the hexamer
same,hexamer converted to octamer by ALA in the presence of morphlock-1,"[3]; hexameric pea PBGS 1 mg/mL, 2 mM morphlock-1, 5 mM ALA",~50%
same,IC50,"[3]; non-equilibrium conditions, 1 mg/ml (~28 μM subunits) pea PBGS, read-out: observed IC50 in native PAGE analyses",~500 µM
same,"effect on pea PBGS morpheein equilibrium, native PAGE","[3]; pea PBGS 1 mg/mL, various concentrations of morphlock-1, 30 minutes at 37° C.",draws the pea PBGS morpheein equilibrium entirely to the hexamer in a dose dependent fashion
same,Coomassie and activity stained native PAGE: binding to hexameric assembly,"[3]; pea PBGS 1 mg/ml, morphlock-1 at 2 mM",prevents the substrate mediated conversion of hexamer to octamer

# Source: patent publication US8153410B2, “Alternate morpheein forms of allosteric proteins as a target for the development of bioactive molecules” (Fox Chase Cancer Center, priority 2003, dated 2012)
